# Results taken from paper PMC3462190, “A Peptidic Unconjugated GRP78/BiP Ligand Modulates the Unfolded Protein Response and Induces Prostate Cancer Cell Death” (PLoS ONE, 2012).
# Where no end group is shown, it is not given here.
# B1: Bag-1 peptide: internal sequence of 68 amino acids of Bag-1 (Bag1-L 202–269), HA-tagged, expressed from pcDNA3 (peptide)
# chain: TPLSALGIQDGCRVMLIGKKNSPQEEVELKKLKHLEKSVEKIADQLEELNKELTGIQQGFLPKDLQAE
# modifications: also: HA tag, end not given here
# What was measured:
# Format in all cases: cell-based
# [1] = tested on: RWPE-1 cells; test: Clonogenic assay; details: benign prostate cells, 19-mer vector vs control; at least three experiments
# Procedure: (§1) Figure 6 Selectivity of action of the Bag-1 peptide. A Amino acid sequence of the 19mer peptide and its deletion mutants. B GST pull-down assay performed incubating 400 µg of 22Rv.1 cell lysate and 25 µg of GST-fused deletion mutants of the 19mer peptide. After the pull-down experiment, Western blots were carried out with anti-GRP78/BiP and GST antibodies. C. Fluorescence polarization (FP) assays with a 10 nM FITC-labeled 7-mer Bag-1 peptide and dilutions of the GST-fused substrate binding domain of GRP78 in 60 µl of Tris-GSH buffer (50 mM Tris, 10 mM reduced glutathione and 0.1% BSA, pH 8.0). Triplicate samples were measured after 5 h of incubation at room temperature with an Infinite F-200 reader (Tecan) with excitation at 490 nm and emission at 535 nm. Binding constants were determined from three independent experiments using non-linear regression in Sigma Plot 10.0. D. Competition assays with a complex of 10 nM of FITC-labeled Bag-1 7-mer peptide and 0.75 mg/ml GST-fused GRP78 substrate binding domain was measured against a dilution series from 100 µM to 0.1 nM of wild-type Bag-1 7-mer peptide (filled line) or triple mutant peptide (dotted line) in 40 µl of Tris-GSH buffer. FITC-peptide and the FITC-peptide-protein complex were used as controls. Fluorescence polarization was determined as described above and IC50 values were determined in Sigma Plot. E. Clonogenic assay in 22Rv.1 cells with pcDNA3 based vectors coding for the N-terminal Bag-1 peptide (positive control), the 19mer and the 19mer mutant fragments as well as the empty expression vector (negative control). Cells were transfected with the indicated constructs and selected in medium containing neomycin. The colonies were stained and quantified. Shown as bar chats are the mean ± SEM of at least three independent experiments with three different plasmid preparations. (*p<0.05). F. In vivo luciferase refolding assay was performed in HEK-293 cells transfected at 70% confluency with 2 µg β-actin-fire fly luciferase construct, 3 µg pcDNA3 empty vector as control or pCMV6-GRP78, 6 µg pcDNA3.1-HA-19-mer or 19-mer mutant peptide and 0.5 µg Renilla luciferase construct to determine the transfection efficiency. Shown as bar charts is the mean of at least three different experiments ± SEM (*p<0.05). G. Clonogenic assay with the indicated malignant (LNCaP, DU145, PC3) and benign (BPH1, PNT2, RWPE1) prostate cell lines transfected with the vector control (black bars) and a vector expressing the 19-mer peptide (white bars). Shown are the mean ± SD of at least three different experiments performed with three different plasmid preparations (*p<0.05). H. Western blot analysis of cell lysates derived from the prostate cancer cells used for the colony forming assay with specific antibodies against GRP78 and β-actin.
# [2] = tested on: DU145 cells; test: Clonogenic assay; details: 19-mer expressing vector vs vector control; at least three experiments
# Procedure: as §1
# [3] = tested on: PNT-2 cells; test: Clonogenic assay; details: benign prostate cells, 19-mer vector vs control; at least three experiments
# Procedure: as §1
# [4] = tested on: PC3 cells; test: Clonogenic assay; details: 19-mer expressing vector vs vector control; at least three experiments
# Procedure: as §1
# [5] = tested on: LNCaP cells; test: Clonogenic assay; details: 19-mer expressing vector vs vector control; at least three experiments
# Procedure: as §1
# [6] = tested on: 22Rv.1 cells; test: CellTiter-Blue proliferation/viability assay; details: 22Rv.1 clones P25, P29 and P42 vs vector clones V18, V19 and V33; no ER stress; 2 days; at least four independent experiments, p<0.05
# Procedure: CellTiter-Blue® cell viability assay kit (Promega) was used for the determination of cell viability. Briefly 22Rv.1 cells stably overexpressing the Bag-1 peptide were seeded into two 96 well plate (4500 cells/well) and the measurements were performed in triplicate. One plate was analyzed at day 0 and the other plate, 2 days later. Three hours after seeding, 20 µl of dye were added to each well containing 100 µl of culture medium and incubated for 4 h at 37°C. Fluorescence was measured by the plate-reading fluorometer FluoStar Optima (2001, BMG Labtechnology, software version 1.10–0) and presented as the ratio of the value at the excitation wavelength (560 nm) over the emission wavelenght (590 nm). Cell proliferation was determined from the difference between the fluorescence intensity at the final time point and the value obtained at the day of seeding of the cells (day 0).
# Figure 4 The Bag-1 peptide inhibits prostate cancer cell growth in vivo. A. Stable clones of 22Rv.1 cells show reduced cell viability in vitro. […] Tumor size was measured once per week using a caliper and expressed as tumor volume in mm^3. […] Nuclei are stained blue-purple with hematoxylin while apoptotic cells detected with the TUNEL assay are stained brown. […]
Molecule,RWPE-1 growth in clonogenic assay [1],DU145 growth in clonogenic assay [2],PNT-2 growth in clonogenic assay [3],PC3 growth in clonogenic assay [4],LNCaP growth in clonogenic assay [5],proliferation [6]
19-mer: Bag-1L 202–220 (TPLSALGIQDGCRVMLIGK; not fully specified),not growth inhibited,inhibited growth,not growth inhibited,inhibited growth,inhibited growth,
B1,,,,,,significantly reduced proliferation
